The numbers were not newly measured in patent publication US5843942A, “Aromatic amino ethers as pain relieving agents” (Zeneca Limited, priority 1994, dated 1998), which cites them from elsewhere.

The structures appear in SMILES notation.

With `CC(=O)NNC(=O)N1Cc2ccccc2Oc2ccc(Cl)cc21` [SC-19220], the “block of the effect of PGE2” value in the data set with cat trachea was “not on other tissues such as the cat trachea”; with dog fundus it was “blocks the effect of PGE2”; with guinea pig ileum it was “blocks the effect of PGE2”.
